Reference: patent US5759827A, “Acylated oligopeptides for transfecting cells” (Hoffmann-La Roche Inc., priority 1995, dated 1998)
Square brackets hold non-standard residues; d marks the D form. Peptide text beside a SMILES is read from it. * marks the point of attachment. Palmitoyl = CCCCCCCCCCCCCCCC(=O)*; dDab = NCC[C@@H](N)C(=O)O; Orn = NCCC[C@H](N)C(=O)O; dDap = NC[C@@H](N)C(=O)O; Dab = NCC[C@H](N)C(=O)O; Dap = NC[C@H](N)C(=O)O; NHNH2 = NN*

What was measured:
Assay type in all cases: cell-based
COS-1 cells = assay: Transfection efficiency in COS-1 cells with a beta-galactosidase encoding plasmid; settings: for Beta-galactosidase activity 0.2 μg DNA/well / Beta-galactosidase activity 1 μg DNA/well: formulated as in example 1 (DOPE liposomes added to compound/DNA), 48 h after transfection
Protocol: Dioleoyl phosphatidylethanolamine (DOPE, Avanti Polar Lipids Inc.) liposomes were prepared by drying under vacuum the lipid in solution in chloroform and then rehydrating the lipid film with 30 mM Tris Cl pH 8.5. Final lipid concentration was 2 mM. The lipid dispersion was subsequently sonicated for 10-15 min in a sonicator bath (Elgasonic, 50 kHz).
(§1) Twenty μg of plasmid DNA were diluted with 260 μl of distilled, sterile water in a polystyrene sterile tube. […] 140 μl of DOPE liposomes were then slowly added, drop by drop, to obtain a molar ratio between DOPE and Nγ-palmitoyl-D-(α,γ-diaminobutyryl)-L-(α,γ-diaminobutyric acid) hydrazide of 5:1. The complex was carefully mixed. The preparation was allowed to stand at room temperature during about 5 min and was then added to COS-1 cells grown in 96-well plates.
as §1, with “Mixed micelles of DOPE (2 μmoles) and dicaproyl phosphatidylcholine (15 μmotes) were prepared by drying the lipids under vacuum and then rehydrating the lipid film with 1 ml of 30 mM TrisCl buffer pH 8.5. Twenty” for “Twenty”, “pCH110” for “DNA”, “distilled” for “distilled, sterile”, “DOPE/dicyproyl PC mixed micelles” for “DOPE liposomes”, “added” for “added, drop by drop,”
The mixture was added to 20 μg of plasmid DNA in 260 μl of distilled water, so that the +/- charge ratio between Nγ-palmitoyl-D-(α,γ-diaminobutyryl)-L-(α,γ-diaminobutyric acid) hydrazide and plasmid DNA was 2:1. The complex was carefully mixed. The preparation was allowed to stand at room temperature during about 5 min and was then added to COS-1 cells grown in 96-well plates.

293-EBNA = assay: Transfection efficiency with a luciferase encoding vector, 293-EBNA cell-line
Protocol: (§2) A transfecting complex with Nγ-palmitoyl-D-(α,γ-diaminobutyryl)-L-(α,γ-diaminobutyric acid) hydrazide (compound A) was prepared as described in example 1. Lipofectamine™ complex was prepared following manufacturer's instructions. The transfection efficiency of both systems was compared in various cell-lines using a luciferase encoding vector.
(§3) Cells were transfected with a luciferase encoding plasmid and luciferase activity was measured 48 h after transfection. Results are expressed as relative light units.

CHO K1 = assay: Transfection efficiency with a luciferase encoding vector, CHO K1 cell-line
Protocol: as §2, §3

HeLa = assay: Transfection efficiency with a luciferase encoding vector, HeLa cell-line
Protocol: as §2, §3

LM tk- = assay: Transfection efficiency with a luciferase encoding vector, LM tk- cell-line
Protocol: as §2, §3

With `CCCCCCCCCCCCCCCC(=O)N[C@@H](CCCCN)C(=O)N[C@@H](CCCCN)C(=O)O` [N^α palmitoyl-L lysyl-L lysine] the “Beta-galactosidase activity 0.2 μg DNA/well” value (COS-1 cells) was 0 μunits of beta-galactosidase p and the “Beta-galactosidase activity 1 μg DNA/well” value (COS-1 cells) was 530 μunits of beta-galactosidase p.

In the case of “N^α palmitoyl-L lysyl-L lysine methyl ester”, the “Beta-galactosidase activity 0.2 μg DNA/well” value (COS-1 cells) is reported as 0 μunits of beta-galactosidase p and the “Beta-galactosidase activity 1 μg DNA/well” value (COS-1 cells) is reported as 150 μunits of beta-galactosidase p.

With `CCCCCCCCCCCCCCCC(=O)N[C@@H](CCN)C(=O)NN` [N^α palmitoyl-L (α,γ-diaminobutyric acid) hydrazide] the “Beta-galactosidase activity 1 μg DNA/well” value (COS-1 cells) was 1411 μunits of beta-galactosidase p.

In the case of `CCCCCCCCCCCCCCCC(=O)NCC[C@H](N)C(=O)N[C@@H](CCN)C(=O)N[C@@H](CCN)C(=O)N[C@@H](CCN)C(=O)NN` [N^γ palmitoyl-L (α,γ-diaminobutyryl)-L (α,γ-diaminobutyryl)-L (α,γ-diaminobutyryl)-L (α,γ-diaminobutyric acid) hydrazide] (H-[Dab](Palmitoyl)[Dab][Dab][Dab]-NHNH2), the “Beta-galactosidase activity 0.2 μg DNA/well” value (COS-1 cells) is reported as 1800 μunits of beta-galactosidase p and the “Beta-galactosidase activity 1 μg DNA/well” value (COS-1 cells) is reported as 7835 μunits of beta-galactosidase p.

For “N^α methyl arachidoyl-L lysyl-L lysine methyl ester”, the “Beta-galactosidase activity 0.2 μg DNA/well” value (COS-1 cells) was 0 μunits of beta-galactosidase p and the “Beta-galactosidase activity 1 μg DNA/well” value (COS-1 cells) was 148 μunits of beta-galactosidase p.

With `CCCCCCCCCCCCCCCC(=O)NC[C@@H](N)C(=O)N[C@@H](CN)C(=O)OCC` [N^γ palmitoyl-D (α,ε-diaminopropionyl)-L (α,ε-diaminopropionic acid) ethyl ester] (H-[dDap](Palmitoyl)-[Dap]-OEt) the “Beta-galactosidase activity 0.2 μg DNA/well” value (COS-1 cells) was 359 μunits of beta-galactosidase p and the “Beta-galactosidase activity 1 μg DNA/well” value (COS-1 cells) was 0 μunits of beta-galactosidase p.

For `CCCCCCCCCCCCCCCC(=O)N[C@@H](CCCNC(=N)N)C(=O)N[C@@H](CCCNC(=N)N)C(=O)OCC` [N^α palmitoyl-L arginyl-L arginine ethyl ester] (Palmitoyl-Arg-Arg-OEt), the “Beta-galactosidase activity 0.2 μg DNA/well” value (COS-1 cells) was 0 μunits of beta-galactosidase p and the “Beta-galactosidase activity 1 μg DNA/well” value (COS-1 cells) was 382 μunits of beta-galactosidase p.

In the case of `CCCCCCCCCCCCCCCC(=O)N[C@@H](CCCCN)C(=O)N[C@@H](CCCCN)C(=O)NCc1ccccc1` [N^α palmitoyl-L lysyl-L lysine benzylamide], the “Beta-galactosidase activity 0.2 μg DNA/well” value (COS-1 cells) is reported as 510 μunits of beta-galactosidase p and the “Beta-galactosidase activity 1 μg DNA/well” value (COS-1 cells) is reported as 845 μunits of beta-galactosidase p.

For `CCCCCCCCCCCCCCCC(=O)NCC[C@@H](N)C(=O)N[C@@H](CCN)C(=O)NN` [cpd A, Nγ-palmitoyl-D-(α,γ-diaminobutyryl)-L-(α,γ-diaminobutyric acid) hydrazide] (H-[dDab](Palmitoyl)-[Dab]-NHNH2), the “transfection efficiency expressed as beta-galactosidase activity” value (“transfection efficiency expressed” for short) (COS-1 cells; Example 2: DOPE/dicaproyl phosphatidylcholine mixed micelles, plasmid pCH110, 0.2 μg of DNA per well) was 7280 μUnits per well, the “transfection efficiency expressed” value (COS-1 cells; Example 2: DOPE/dicaproyl phosphatidylcholine mixed micelles, plasmid pCH110, 1 μg of DNA per well) was 6375 μUnits per well and the “transfection efficiency expressed” value (COS-1 cells; Example 3: compound premixed with DOPE liposomes, then added to DNA, 0.2 μg of DNA per well) was 4205 μUnits per well. The “transfection efficiency expressed” value (COS-1 cells; Example 3: compound premixed with DOPE liposomes, then added to DNA, 1 μg of DNA per well) was 7880 μUnits per well, the “Beta-galactosidase activity 0.2 μg DNA/well” value (COS-1 cells) was 5772 μunits of beta-galactosidase p and the “Beta-galactosidase activity 1 μg DNA/well” value (COS-1 cells) was 9942 μunits of beta-galactosidase p. For the same molecule, the “enhancement cpd A over Lipofectamine” value (293-EBNA) was 5, the “enhancement cpd A over Lipofectamine” value (CHO K1) was 33 and the “enhancement cpd A over Lipofectamine” value (HeLa) was 4. The “enhancement cpd A over Lipofectamine” value (LM tk-) was 12.

In the case of `CCCCCCCCCCCCCCCC(=O)NCC[C@@H](N)C(=O)N[C@H](CCN)C(=O)N[C@@H](CCN)C(=O)NN` [N^γ palmitoyl-D (α,γ-diaminobutyryl)-D (α,γ-diaminobutyryl)-L (α,γ-diaminobutyric acid) hydrazide] (H-[dDab](Palmitoyl)-[dDab]-[Dab]-NHNH2), the “Beta-galactosidase activity 0.2 μg DNA/well” value (COS-1 cells) is reported as 1847 μunits of beta-galactosidase p and the “Beta-galactosidase activity 1 μg DNA/well” value (COS-1 cells) is reported as 7768 μunits of beta-galactosidase p.

In the case of `CCCCCCCCCCCCCCCC(=O)N[C@@H](CCN)C(=O)N[C@@H](CCN)C(=O)NN` [N^α palmitoyl-L (α,γ-diaminobutyryl)-L (α,γ-diaminobutyric acid) hydrazide] (Palmitoyl-[Dab]-[Dab]-NHNH2), the “Beta-galactosidase activity 0.2 μg DNA/well” value (COS-1 cells) is reported as 2742 μunits of beta-galactosidase p and the “Beta-galactosidase activity 1 μg DNA/well” value (COS-1 cells) is reported as 3519 μunits of beta-galactosidase p.

For `CCCCCCCCCCCCCCCC(=O)N[C@@H](CCCCN)C(=O)N[C@@H](CCCCN)C(=O)N[C@@H](CCCCN)C(=O)NN` [N^α palmitoyl-L lysyl-L lysyl-L lysine hydrazide], the “Beta-galactosidase activity 0.2 μg DNA/well” value (COS-1 cells) was 136 μunits of beta-galactosidase p and the “Beta-galactosidase activity 1 μg DNA/well” value (COS-1 cells) was 2232 μunits of beta-galactosidase p.

With `CCCCCCCCCCCCCCCC(=O)N[C@@H](CCCCN)C(=O)N[C@@H](CO)C(=O)OC` [N^α palmitoyl-L lysyl-L serine methyl ester] the “Beta-galactosidase activity 0.2 μg DNA/well” value (COS-1 cells) was 0 μunits of beta-galactosidase p and the “Beta-galactosidase activity 1 μg DNA/well” value (COS-1 cells) was 219 μunits of beta-galactosidase p.

For `CCCCCCCCCCCCCCCC(=O)N[C@@H](CCCNC(=N)N)C(=O)N[C@@H](CCCN)C(=O)OC` [N^α palmitoyl-L arginyl-L ornithine methyl ester] (Palmitoyl-Arg-[Orn]-OMe), the “Beta-galactosidase activity 0.2 μg DNA/well” value (COS-1 cells) was 0 μunits of beta-galactosidase p and the “Beta-galactosidase activity 1 μg DNA/well” value (COS-1 cells) was 870 μunits of beta-galactosidase p.

With “N^α palmitoyl-L lysyl-L lysine ethyl ester” the “Beta-galactosidase activity 0.2 μg DNA/well” value (COS-1 cells) was 138 μunits of beta-galactosidase p and the “Beta-galactosidase activity 1 μg DNA/well” value (COS-1 cells) was 424 μunits of beta-galactosidase p.

In the case of N^α oleoyl-L lysyl-L lysine ethyl ester, the “Beta-galactosidase activity 0.2 μg DNA/well” value (COS-1 cells) is reported as 0 μunits of beta-galactosidase p and the “Beta-galactosidase activity 1 μg DNA/well” value (COS-1 cells) is reported as 1333 μunits of beta-galactosidase p.

“N^α palmitoyl-L (α,γ-diaminobutyryl)-L lysine methyl ester” was tested, and the “Beta-galactosidase activity 1 μg DNA/well” value (COS-1 cells) was 791 μunits of beta-galactosidase p.

With “N^γ γ palmitoyl-D (α,ε-diaminopropionyl)-L (α,ε-diaminopropionic acid) hydrazide” the “Beta-galactosidase activity 0.2 μg DNA/well” value (COS-1 cells) was 0 μunits of beta-galactosidase p and the “Beta-galactosidase activity 1 μg DNA/well” value (COS-1 cells) was 3671 μunits of beta-galactosidase p.

With `CCCCCCCCCCCCCCCC(=O)NCC[C@H](N)C(=O)N[C@H](CCN)C(=O)N[C@H](CCN)C(=O)N[C@@H](CCN)C(=O)NN` [N^γ palmitoyl-L (α,γ-diaminobutyryl)-D (α,γ-diaminobutyryl)-D (α,γ-diaminobutyryl)-L (α,γ-diaminobutyric acid) hyrazide] (H-[Dab](Palmitoyl)[dDab][dDab][Dab]-NHNH2) the “Beta-galactosidase activity 0.2 μg DNA/well” value (COS-1 cells) was 497 μunits of beta-galactosidase p and the “Beta-galactosidase activity 1 μg DNA/well” value (COS-1 cells) was 542 μunits of beta-galactosidase p.

`CCCCCCCCCCCCCCCC(=O)N[C@@H](CCCN)C(=O)N[C@@H](CCCN)C(=O)OC` [N^α palmitoyl-L ornithyl-L ornithine methyl ester] was tested, and the “Beta-galactosidase activity 0.2 μg DNA/well” value (COS-1 cells) was 44 μunits of beta-galactosidase p and the “Beta-galactosidase activity 1 μg DNA/well” value (COS-1 cells) was 789 μunits of beta-galactosidase p.

In the case of “N^ε palmitoyl-L lysyl-L lysyl-L lysine methyl ester”, the “Beta-galactosidase activity 0.2 μg DNA/well” value (COS-1 cells) is reported as 0 μunits of beta-galactosidase p and the “Beta-galactosidase activity 1 μg DNA/well” value (COS-1 cells) is reported as 1426 μunits of beta-galactosidase p.

In the case of “N^ε palmitoyl-L lysyl-L lysine methyl ester”, the “Beta-galactosidase activity 0.2 μg DNA/well” value (COS-1 cells) is reported as 0 μunits of beta-galactosidase p and the “Beta-galactosidase activity 1 μg DNA/well” value (COS-1 cells) is reported as 100 μunits of beta-galactosidase p.
